Data as given in article PMC8523698, “Preclinical characterization of an intravenous coronavirus 3CL protease inhibitor for the potential treatment of COVID19” (Nature Communications, 2021).
pIC50: −log10 of the molar value. ≈ marks a conversion by molar mass, not a printed value. Where “and” joins values, the source holds several entries; their conditions need not be identical. Identical values can stand only once.

Legend:
CYP3A4/5 = assay: Reversible CYP inhibition in human liver microsomes; details: for pIC50: at approximately KM
hERG channel = hERG channel (Homo sapiens, UniProt Q12809); assay: hERG potassium channel current assay; details: 300 µM vs projected Cmax at projected human efficacious dose
Sequence of hERG channel (Q12809 whole entry): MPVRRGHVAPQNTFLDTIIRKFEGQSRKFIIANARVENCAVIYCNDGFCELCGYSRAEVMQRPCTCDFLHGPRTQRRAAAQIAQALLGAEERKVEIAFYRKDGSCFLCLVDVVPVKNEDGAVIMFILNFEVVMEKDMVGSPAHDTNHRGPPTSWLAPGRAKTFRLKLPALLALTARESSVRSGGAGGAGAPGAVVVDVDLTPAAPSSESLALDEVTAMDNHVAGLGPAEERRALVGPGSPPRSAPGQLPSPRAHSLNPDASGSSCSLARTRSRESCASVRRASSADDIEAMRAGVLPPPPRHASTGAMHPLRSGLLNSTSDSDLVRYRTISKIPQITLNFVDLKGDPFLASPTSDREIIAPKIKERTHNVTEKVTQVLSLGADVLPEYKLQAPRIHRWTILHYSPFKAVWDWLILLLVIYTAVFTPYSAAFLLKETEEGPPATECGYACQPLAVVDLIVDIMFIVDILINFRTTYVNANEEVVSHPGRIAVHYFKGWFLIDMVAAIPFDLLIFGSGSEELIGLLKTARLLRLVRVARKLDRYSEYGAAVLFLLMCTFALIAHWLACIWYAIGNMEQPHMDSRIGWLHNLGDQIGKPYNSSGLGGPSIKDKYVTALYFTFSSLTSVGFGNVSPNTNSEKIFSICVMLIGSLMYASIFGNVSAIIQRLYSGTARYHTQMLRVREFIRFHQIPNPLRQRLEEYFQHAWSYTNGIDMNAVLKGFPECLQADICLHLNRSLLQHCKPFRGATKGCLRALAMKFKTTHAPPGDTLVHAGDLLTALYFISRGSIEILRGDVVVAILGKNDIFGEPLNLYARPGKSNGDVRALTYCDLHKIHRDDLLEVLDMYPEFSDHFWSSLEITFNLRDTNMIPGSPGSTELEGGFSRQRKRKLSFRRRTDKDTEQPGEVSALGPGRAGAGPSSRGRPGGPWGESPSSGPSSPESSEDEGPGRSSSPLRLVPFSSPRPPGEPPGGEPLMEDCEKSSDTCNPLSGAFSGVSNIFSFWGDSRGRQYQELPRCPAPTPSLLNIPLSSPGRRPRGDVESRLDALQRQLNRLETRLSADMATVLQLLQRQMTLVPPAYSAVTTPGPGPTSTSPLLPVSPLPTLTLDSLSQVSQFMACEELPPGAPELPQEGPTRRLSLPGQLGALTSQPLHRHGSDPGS

[1] = Secondary/off-target pharmacology panel (Eurofins Cerep); details: assessed at 100 µM
[2] = test system: SARS-CoV-2 Belgium/GHB-03021/2020 strain; assay: microbe, parasite or virus in culture; format: cell-based; details: Severe acute respiratory syndrome coronavirus 2

## COc1cccc2[nH]c(C(=O)N[C@@H](CC(C)C)C(=O)N[C@@H](C[C@@H]3CCNC3=O)C(=O)CO)cc12 [PF-00835231]
CYP3A4/5; CYP 3A4/5 (tst), 0.979 µM, Zero-Minute Preincubation
  Percent of Control Activity: 120.0% and 100.0%
CYP3A4/5; CYP 3A4/5 (tst), 2.09 µM, 30-Minute Preincubation
  Percent of Control Activity: 146.9% and 144.6% and 107.9%
CYP3A4/5; CYP 3A4/5 (tst), 2.09 µM, Zero-Minute Preincubation
  Percent of Control Activity: 128.1%
CYP3A4/5; CYP 3A4/5 (tst), 4.48 µM, 30-Minute Preincubation
  Percent of Control Activity: 142.0% and 164.4%
CYP3A4/5; CYP 3A4/5 (tst), 4.48 µM, Zero-Minute Preincubation
  Percent of Control Activity: 92.4% and 117.7% and 97.0%
CYP3A4/5; CYP 3A4/5 (tst), 20.5 µM, 30-Minute Preincubation
  Percent of Control Activity: 84.0%
CYP3A4/5; CYP 3A4/5 (tst), 20.5 µM, Zero-Minute Preincubation
  Percent of Control Activity: 71.0% and 70.3%
CYP3A4/5; CYP 3A4/5 (tst), 43.8 µM, 30-Minute Preincubation
  Percent of Control Activity: 71.6%
CYP3A4/5; CYP 3A4/5 (tst), 43.8 µM, Zero-Minute Preincubation
  Percent of Control Activity: 96.7%
CYP3A4/5; CYP 3A4/5 (tst), 93.5 µM, 30-Minute Preincubation
  Percent of Control Activity: 42.9% and 41.8%
CYP3A4/5; CYP 3A4/5 (tst), 93.5 µM, Zero-Minute Preincubation
  Percent of Control Activity: 60.1%
CYP3A4/5; CYP 3A4/5 (tst), 200 µM, 30-Minute Preincubation
  Percent of Control Activity: 26.6%
CYP3A4/5; CYP 3A4/5 (tst), 200 µM, Zero-Minute Preincubation
  Percent of Control Activity: 39.6% and 35.7%
CYP3A4/5; human, human liver microsomes, pH 7.4, probe midazolam (1′-hydroxylation), IC50, Midazolam 1′-hydroxylation, T0
  pIC50: < 3.70
CYP3A4/5; human, human liver microsomes, pH 7.4, probe midazolam (1′-hydroxylation), IC50, Midazolam 1′-hydroxylation, T30
  pIC50: < 3.70
CYP3A4/5; human, human liver microsomes, pH 7.4, probe midazolam (mdz), Percent of Control Activity, CYP 3A4/5 (mdz), 0.1 µM, 30-Minute Preincubation
  activity at 0.1 µM: 113%
CYP3A4/5; human, human liver microsomes, pH 7.4, probe midazolam (mdz), Percent of Control Activity, CYP 3A4/5 (mdz), 0.214 µM, 30-Minute Preincubation
  activity at 0.214 µM: 111%
CYP3A4/5; human, human liver microsomes, pH 7.4, probe midazolam (mdz), Percent of Control Activity, CYP 3A4/5 (mdz), 0.214 µM, Zero-Minute Preincubation
  activity at 0.214 µM: 107%
CYP3A4/5; human, human liver microsomes, pH 7.4, probe midazolam (mdz), Percent of Control Activity, CYP 3A4/5 (mdz), 0.979 µM, 30-Minute Preincubation
  activity at 0.979 µM: 113%
CYP3A4/5; human, human liver microsomes, pH 7.4, probe midazolam (mdz), Percent of Control Activity, CYP 3A4/5 (mdz), 0.979 µM, Zero-Minute Preincubation
  activity at 0.979 µM: 115%
CYP3A4/5; human, human liver microsomes, pH 7.4, probe midazolam (mdz), Percent of Control Activity, CYP 3A4/5 (mdz), 2.09 µM, 30-Minute Preincubation
  activity at 2.09 µM: 112%
CYP3A4/5; human, human liver microsomes, pH 7.4, probe midazolam (mdz), Percent of Control Activity, CYP 3A4/5 (mdz), 2.09 µM, Zero-Minute Preincubation
  activity at 2.09 µM: 100%
CYP3A4/5; human, human liver microsomes, pH 7.4, probe midazolam (mdz), Percent of Control Activity, CYP 3A4/5 (mdz), 4.48 µM, 30-Minute Preincubation
  activity at 4.48 µM: 106%
CYP3A4/5; human, human liver microsomes, pH 7.4, probe midazolam (mdz), Percent of Control Activity, CYP 3A4/5 (mdz), 43.8 µM, 30-Minute Preincubation
  activity at 43.8 µM: 88.1%
CYP3A4/5; human, human liver microsomes, pH 7.4, probe midazolam (mdz), Percent of Control Activity, CYP 3A4/5 (mdz), 93.5 µM, 30-Minute Preincubation
  activity at 93.5 µM: 72.3%
CYP3A4/5; human, human liver microsomes, pH 7.4, probe midazolam (mdz), Percent of Control Activity, CYP 3A4/5 (mdz), 93.5 µM, Zero-Minute Preincubation
  activity at 93.5 µM: 113%
CYP3A4/5; human, human liver microsomes, pH 7.4, probe midazolam (mdz), Percent of Control Activity, CYP 3A4/5 (mdz), 200 µM, 30-Minute Preincubation
  activity at 200 µM: 54.3%
CYP3A4/5; human, human liver microsomes, pH 7.4, probe midazolam (mdz), Percent of Control Activity, CYP 3A4/5 (mdz), 200 µM, Zero-Minute Preincubation
  activity at 200 µM: 107%
CYP3A4/5; human, human liver microsomes, pH 7.4, probe testosterone (6β-hydroxylation), IC50 (confidence interval), Testosterone 6β-hydroxylation, T0
  pIC50: 3.97
CYP3A4/5; human, human liver microsomes, pH 7.4, probe testosterone (6β-hydroxylation), IC50 (confidence interval), Testosterone 6β-hydroxylation, T30
  pIC50: 4.20
CYP3A4/5; human, human liver microsomes, pH 7.4, probe testosterone (tst), Percent of Control Activity, CYP 3A4/5 (tst), 0.1 µM, 30-Minute Preincubation
  activity at 30 min, 0.1 µM: 92.1%
CYP3A4/5; human, human liver microsomes, pH 7.4, probe testosterone (tst), Percent of Control Activity, CYP 3A4/5 (tst), 0.1 µM, Zero-Minute Preincubation
  activity at 0.1 µM: 88.6%
CYP3A4/5; human, human liver microsomes, pH 7.4, probe testosterone (tst), Percent of Control Activity, CYP 3A4/5 (tst), 0.214 µM, 30-Minute Preincubation
  activity at 30 min, 0.214 µM: 115%
CYP3A4/5; human, human liver microsomes, pH 7.4, probe testosterone (tst), Percent of Control Activity, CYP 3A4/5 (tst), 0.979 µM, 30-Minute Preincubation
  activity at 30 min, 0.979 µM: 116%
CYP3A4/5; human, human liver microsomes, pH 7.4, probe testosterone (tst), Percent of Control Activity, CYP 3A4/5 (tst), 0.979 µM, Zero-Minute Preincubation
  activity at 0 min, 0.979 µM: 114%
CYP3A4/5; human, human liver microsomes, pH 7.4, probe testosterone (tst), Percent of Control Activity, CYP 3A4/5 (tst), 2.09 µM, Zero-Minute Preincubation
  activity at 0 min, 2.09 µM: 109%
CYP3A4/5; human, human liver microsomes, pH 7.4, probe testosterone (tst), Percent of Control Activity, CYP 3A4/5 (tst), 43.8 µM, 30-Minute Preincubation
  activity at 43.8 µM: 73.4%
CYP3A4/5; human, human liver microsomes, pH 7.4, probe testosterone (tst), Percent of Control Activity, CYP 3A4/5 (tst), 43.8 µM, Zero-Minute Preincubation
  activity at 43.8 µM: 75.3%
CYP3A4/5; human, human liver microsomes, pH 7.4, probe testosterone (tst), Percent of Control Activity, CYP 3A4/5 (tst), 93.5 µM, 30-Minute Preincubation
  activity at 93.5 µM: 37.7%
CYP3A4/5; human, human liver microsomes, pH 7.4, probe testosterone (tst), Percent of Control Activity, CYP 3A4/5 (tst), 93.5 µM, Zero-Minute Preincubation
  activity at 93.5 µM: 54.9%
CYP3A4/5; human, human liver microsomes, pH 7.4, probe testosterone (tst), Percent of Control Activity, CYP 3A4/5 (tst), 200 µM, 30-Minute Preincubation
  activity at 200 µM: 15.1%
CYP3A4/5; human, human liver microsomes, pH 7.4, probe testosterone (tst), Percent of Control Activity, CYP 3A4/5 (tst), 200 µM, Zero-Minute Preincubation
  activity at 200 µM: 36.4%
In vitro; African green monkey, CC50
  CC50: > 100 µM
In vitro; African green monkey, CC50, n=1
  CC50: > 50 µM
In vitro; monkey, CC50
  CC50: > 50 µM
In vitro; monkey, CC50, n=1
  CC50: > 50 µM
In vitro; monkey, CC50 GeoMean (95% CI)
  CC50: > 100 µM
hERG channel
  hERG margin in reference to projected unbound human Cmax: 600 fold
[1]
  secondary (off-target) pharmacology: minimal potential for secondary (off-target) pharmacology
Solubility measurement; deionized water and pH buffers
  solubility at 48 h: < 100 µg/mL
Solubility measurement; standard solubilizing excipients, aqueous with cosolvent or surfactant or cyclodextrin
  solubility: 500 µg/mL (≈ 1060 µM)
[2]
  EC90: 1.6 µM
